± gives the expanded uncertainty stated by the source.

For series [1] the following is noted: Crystal; DTA.
Series [2] in a line: Molar enthalpy of transition or fusion. Conditions: Crystal; DSC.

`O=C1COCCO1` [1,4-dioxan-2-one]: the Normal melting temperature in series [1] was determined as 28.26 ± 0.5 °C. Moreover, in series [2], the “Molar enthalpy of transition or fusion” value was 3.75 ± 0.0908 kcal/mol.

The values above are taken from the NIST ThermoML archive (doi:10.1021/je050406x).
